Assay [1] has as its system MDA-MB-231. Nature of the assay: Antiproliferative activity against human MDA-MB-231 cells after 48 hrs by CCK8 assay. The conditions noted are these: MDA-MB-231, 48 h. Format: functional, cell-based. For orientation: Tetrazolium dyes change colour on reduction, which living cells bring about.
Another assay relates to A-431. Kind of assay: Antiproliferative activity against human A431 cells after 48 hrs by CCK8 assay. The conditions noted are these: A-431, 48 h. In kind it is functional, cell-based.
Another assay addresses T1, Aurora kinase A (Homo sapiens, UniProt O14965).
T1 sequence (O14965 whole entry): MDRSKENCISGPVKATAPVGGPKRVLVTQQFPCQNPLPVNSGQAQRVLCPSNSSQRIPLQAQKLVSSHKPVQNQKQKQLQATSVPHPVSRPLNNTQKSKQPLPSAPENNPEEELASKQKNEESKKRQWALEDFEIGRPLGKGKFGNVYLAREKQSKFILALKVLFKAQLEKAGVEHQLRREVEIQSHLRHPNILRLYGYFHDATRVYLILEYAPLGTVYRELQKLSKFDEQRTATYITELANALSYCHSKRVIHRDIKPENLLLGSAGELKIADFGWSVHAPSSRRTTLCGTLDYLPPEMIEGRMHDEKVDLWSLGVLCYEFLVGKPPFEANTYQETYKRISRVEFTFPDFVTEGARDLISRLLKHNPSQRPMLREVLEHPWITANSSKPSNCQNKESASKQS
Kind of assay: Inhibition of AURKA (unknown origin) using FAM-labeled peptide substrate preincubated for 10 mins followed by substrate addition measured after 60 mins by caliper assay.

The test system of another assay is MCF7. Nature of the assay: Antiproliferative activity against human MCF7 cells after 48 hrs by CCK8 assay. In kind it is functional, cell-based. To be noted: MCF7, 48 h.
A further assay deals with HeLa. Nature of the assay: Antiproliferative activity against human HeLa cells after 48 hrs by CCK8 assay. Format: functional, cell-based.
The target of a further assay is Aurora kinase B (Homo sapiens, UniProt Q96GD4). Nature of the assay: Inhibition of AURKB (unknown origin) using FAM-labeled peptide substrate preincubated for 10 mins followed by substrate addition measured after 60 mins by caliper assay.
The test system of another assay is K562. Kind of assay: Antiproliferative activity against human K562 cells after 48 hrs by CCK8 assay. The conditions noted are these: K562, 48 h. In kind it is functional, cell-based.
For the next assay, the system named is U-937. Kind of assay: Antiproliferative activity against human U937 cells after 48 hrs by CCK8 assay. In kind it is functional, cell-based. To be noted: U-937, 48 h.
In a further assay the test system is HCT-116. Kind of assay: Antiproliferative activity against human HCT116 cells after 48 hrs by CCK8 assay. In kind it is functional, cell-based. To be noted: HCT-116, 48 h.
In assay [2] the test system is MDA-MB-231. Kind of assay: Induction of chromosome alignment defects in human MDA-MB-231 cells at 1 uM after 48 hrs by DAPI staining based immunofluorescence assay. In kind it is functional, cell-based.
For assay [3], the system named is MDA-MB-231. Nature of the assay: Inhibition of alpha-tubulin in human MDA-MB-231 cells assessed as abolishment of regular location of protein at 0.5 uM after 48 hrs by DAPI staining based immunofluorescence assay. In kind it is cell-based.
Assay [4] concerns MDA-MB-231. Kind of assay: Induction of aberrant spindle formation with tripolar and tetrapolar occurrence in human MDA-MB-231 cells at 1 uM after 48 hrs by DAPI staining based immunofluorescence assay. Format: functional, cell-based.

Active and inactive are the calls of the source. The calls are words filed in the database; no cut-off is given here.

Aurora kinase B, sequence (Q96GD4 whole entry): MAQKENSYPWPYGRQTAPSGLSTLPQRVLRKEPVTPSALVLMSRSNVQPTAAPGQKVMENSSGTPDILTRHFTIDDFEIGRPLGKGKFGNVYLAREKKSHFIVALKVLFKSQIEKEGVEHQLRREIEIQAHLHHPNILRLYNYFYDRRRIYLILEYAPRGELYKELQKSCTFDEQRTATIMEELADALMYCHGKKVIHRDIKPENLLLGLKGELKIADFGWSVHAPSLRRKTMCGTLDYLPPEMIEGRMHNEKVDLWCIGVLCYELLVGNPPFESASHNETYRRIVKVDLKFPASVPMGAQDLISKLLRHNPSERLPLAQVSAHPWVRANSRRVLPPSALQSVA

As for `COC(=O)c1ccc(Nc2nc(Nc3cc(C)[nH]n3)cc(N3CCN(C)CC3)n2)cc1F`, the IC50 (as a rule, the concentration at which inhibition is half-maximal) with MDA-MB-231 [1] came to 238 nM; with A-431, 375 nM; against Aurora kinase A, 35 nM; in the assay on MCF7, 7630 nM; with HeLa it was 507 nM; against Aurora kinase B, 145 nM. The IC50 with K562 amounted to 393 nM; in the assay on U-937 it was 94.2 nM; with HCT-116 it was 688 nM.
`Cc1cc(Nc2cc(N3CCN(C)CC3)nc(Nc3cccc(F)c3)n2)n[nH]1`: the IC50 with MDA-MB-231 [1] came out at 166 nM; with A-431, 201 nM; at Aurora kinase A it was 25 nM; in the assay on MCF7, 1260 nM; with HeLa it was 486 nM; against Aurora kinase B it was 102 nM. Further, the IC50 worked out at 184 nM in the assay with K562, 33.1 nM in the assay with U-937 and 317 nM with HCT-116.
As for `Cc1cc(Nc2cc(N3CCN(C)CC3)nc(Nc3ccc4c(c3)OCO4)n2)n[nH]1`, the half-maximal inhibitory concentration (IC50) in the assay on MDA-MB-231 [1] amounted to 206 nM; in the assay on A-431, 419 nM; against Aurora kinase A it was 20 nM; with MCF7, 911 nM; in the assay on HeLa it was 457 nM; on Aurora kinase B, 91.7 nM. For the same compound, the IC50 with K562 stood at 233 nM; in the assay with U-937, 58.4 nM; with HCT-116, 719 nM.
As to `COc1cc(Nc2ncc3c(n2)-c2ccc(Cl)cc2C(c2c(F)cccc2OC)=NC3)ccc1C(=O)O`, the outcome in the assay with MDA-MB-231 [2] and in the assay with MDA-MB-231 [4] was Active. In addition, the inhibition result in the assay with MDA-MB-231 [3] is “Active”.
`Cc1cc(Nc2cc(N3CCN(C)CC3)nc(Nc3ccc(F)c(F)c3)n2)n[nH]1`: the IC50 with MDA-MB-231 [1] came to 160 nM; in the assay on A-431 it was 177 nM; on Aurora kinase A, 17 nM; with MCF7 it was 1290 nM; in the assay with HeLa it was 438 nM; at Aurora kinase B it was 89.2 nM. In addition, the results for the IC50 with K562, in the assay with U-937 and in the assay on HCT-116 were 195 nM, 29.9 nM and 339 nM, respectively.
In the case of `COC(=O)c1ccc(Nc2nc(Nc3cc(C)[nH]n3)cc(N3CCN(C)CC3)n2)cc1OC`, the IC50 in the assay with MDA-MB-231 [1] turned out to be 872 nM; in the assay on A-431 it was 1220 nM; at Aurora kinase A it was 67 nM; in the assay on MCF7, 10300 nM; with HeLa, 872 nM; against Aurora kinase B it was 442 nM. Further, the half-inhibitory concentration (IC50) in the assay on K562 was 762 nM; in the assay with U-937, 545 nM; in the assay with HCT-116, 1140 nM.
Turning to `Cc1cc(Nc2cc(N3CCN(C)CC3)nc(Nc3ccc(F)cc3)n2)n[nH]1`, the concentration for half-maximal inhibition (IC50) worked out at 255 nM with MDA-MB-231 [1]; 340 nM in the assay on A-431; 23 nM on Aurora kinase A; 873 nM in the assay with MCF7; 680 nM with HeLa; 75.1 nM on Aurora kinase B. For the same compound, the concentration for half-maximal inhibition (IC50) turned out to be 357 nM in the assay on K562, 43.2 nM with U-937 and 653 nM in the assay with HCT-116.
Turning to `Cc1cc(Nc2cc(N3CCN(C)CC3)nc(Nc3ccc(Cl)c(F)c3)n2)n[nH]1`, the half-inhibitory concentration (IC50) is 155 nM in the assay with MDA-MB-231 [1]; 136 nM in the assay on A-431; 31 nM against Aurora kinase A; 818 nM with MCF7; 374 nM with HeLa; 101 nM on Aurora kinase B. Also, the IC50 with K562 worked out at 218 nM; in the assay with U-937 it was 24.8 nM; in the assay on HCT-116 it was 252 nM.
Turning to `Cc1cc(Nc2cc(N3CCN(C)CC3)nc(Nc3ccc(Cl)c(Cl)c3)n2)n[nH]1`, the IC50 in the assay with MDA-MB-231 [1] worked out at 84.9 nM; with A-431 it was 129 nM; on Aurora kinase A it was 33 nM; in the assay on MCF7, 552 nM; in the assay with HeLa it was 299 nM; at Aurora kinase B, 50 nM. In addition, the IC50 in the assay with K562 was found to be 128 nM; in the assay with U-937, 17.9 nM; in the assay with HCT-116 it was 106 nM.
Take `Cc1cc(Nc2cc(N3CCOCC3)nc(Nc3ccc(F)c(Cl)c3)n2)n[nH]1`: the concentration for half-maximal inhibition (IC50) in the assay on MDA-MB-231 [1] is 101 nM; against Aurora kinase A it was 6.3 nM; with MCF7, 577 nM; in the assay on HeLa, 464 nM; on Aurora kinase B, 34.6 nM; in the assay on K562, 213 nM. Inhibition in the assay on U-937 was half-maximal at 24 nM (IC50).
For the compound `COc1ccc(Nc2nc(Nc3cc(C)[nH]n3)cc(N3CCN(C)CC3)n2)cc1OC`, the 50% inhibitory concentration (IC50) worked out at 459 nM with MDA-MB-231 [1]; 778 nM with A-431; 38 nM at Aurora kinase A; 6540 nM with MCF7; 678 nM in the assay on HeLa; 452 nM on Aurora kinase B. Besides, the half-maximal inhibitory concentration (IC50) in the assay with K562 was found to be 462 nM; in the assay with U-937, 150 nM; in the assay on HCT-116, 777 nM.
